Drawing on patent publication US8178699B2, “Modulators of CCR9 receptor and methods of use thereof” (Pfizer Inc., priority 2008, dated 2012), this text covers IC50 for 29 compounds.

Structures are written as SMILES. Where a name gives a salt, the structure may show the parent alone.

The target of this test is T1, human CCR9 receptor (Homo sapiens, UniProt P51686).
T1 construct: expressed in transfected cells
T1 sequence (P51686 1-369): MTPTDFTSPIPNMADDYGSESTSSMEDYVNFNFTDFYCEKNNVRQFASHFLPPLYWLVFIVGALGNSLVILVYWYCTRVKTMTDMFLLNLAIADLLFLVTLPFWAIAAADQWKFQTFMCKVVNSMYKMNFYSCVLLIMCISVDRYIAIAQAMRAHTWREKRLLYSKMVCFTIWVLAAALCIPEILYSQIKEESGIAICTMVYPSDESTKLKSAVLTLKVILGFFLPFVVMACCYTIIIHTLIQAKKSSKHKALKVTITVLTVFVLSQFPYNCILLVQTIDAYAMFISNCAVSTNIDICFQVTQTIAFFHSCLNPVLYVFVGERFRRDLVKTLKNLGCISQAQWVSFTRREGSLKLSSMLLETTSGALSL
Description: CCR9 FLIPR/FlexStation Assay (inhibition of TECK induced calcium mobilization). The class given is cell-based. To be noted: CCR9 antagonist activity; TECK induced calcium mobilization in CCR9-Flp-CHO cells stably over expressing human CCR9; rhTECK at EC70; read-out: Binding IC50. An excerpt: Exemplary methods are described in US Publication Nos. US2004/0180892 and US2005/0049286, which are incorporated herein by reference. An exemplary assay for determining CCR9 antagonist activity of the compounds provided herein is CCR9 FLIPR/FlexStation Assay. In certain embodiments, the following protocol is used for the assay:
CCR9 FLIPR/FlexStation Assay Protocol
Calcium assay in FLIPR/FlexStation determines inhibitors of TECK induced calcium mobilization in CCR9-Flp-CHO cells that stably over express human CCR9 receptor. CCR9-Flp-CHO cells are seeded at 25,000 cells/well in a clear bottom, black wall 96-well plate (Greiner #655090) one day prior to assay. Cells are grown in a tissue culture incubator at 37° C. with 5% CO2 for 18 to 24 hours.
Wash buffer and dye loading buffer are prepared fresh each time the assay is performed. Wash buffer is prepared according to the following protocol: 20 ml 10×HBSS (Invitrogen Gibco #14065-056), 4 ml 1M HEPES (Sigma H3784), 174 ml sterile deionized water; then add 140 mg probenecid (Sigma P8761) dissolved in 2 ml 1M NaOH (Fisher S318) to solution and pH to 7.4. This wash buffer contains 1×HBSS, 20 mM HEPES and 2.5 mM probenecid. For one 96-well plate, dye loading buffer is prepared as following: 11 ml wash buffer, 44 μl Fluo-4/pluoronic acid mix (prepared from 22 μL aliquot of 2 mM Fluo-4 (Molecular Probes F14202, 1 mg/tube)+22 μl 20% pluronic F-127 (Molecular Probes P3000MP).
Cells are loaded with dye according to the protocol below:
1. Prepare wash buffer with 1×HBSS/HEPES at room temperature
2. Prepare loading buffer (keep in dark)
3. Aspirate culture media and wash with 100 μl wash buffer per well×1
4. Add 100 μl dye loading buffer to each well
5. Incubate at 37° C. for 30 minutes
6. Aspirate loading buffer
7. Wash with 100 μl wash buffer per well×3
8. Add 100 μl wash buffer per well
9. Incubate at 37° C. for 30 minutes
10. Assay plate with FLIPR or FlexStation
10 mM stock compounds in DMSO are prepared and diluted in DMSO to 1 mM. Compounds are diluted in wash buffer to make 8 point series dilutions containing same final concentration of DMSO (1%). Compounds are tested in duplicate wells for each point. Ligand rhTECK (R&D Systems 334-TK) was diluted to 6× of its EC70 with wash buffer. Appropriate amount of 6× ligand is added to each well. Data is analyzed using XLfit3 software to calculate IC50 value of antagonist activity for each compound.
CCR9 antagonist activity of exemplary compounds was determined using CCR9 FLIPR/FlexStation Assay as described in Section 4.4 and is provided in Table 1 below. The IC50 for the compounds are represented as follows: A≦100 nM; B>100-500 nM; C>500 nM.
(In general: Calcium assays in cells follow changes in intracellular calcium, usually with a dye or a luminescent sensor.)
`CC(C)(C)c1ccc(S(=O)(=O)Nc2ccsc2C(=O)O)c(/C=C/C(=O)O)c1` [Example 30, 3-[4-tert-butyl-2-(2-carboxyvinyl)phenylsulfonamido]thiophene-2-carboxylic acid, trisodium salt]: the IC50 (in general, the concentration needed to halve the response being measured) is over 500 nM.

With `O=C(O)c1sccc1NS(=O)(=O)c1ccc(-n2cccn2)cc1` [Example 31, 3-[4-(1H-pyrazol-1-yl)phenylsulfonamido]thiophene-2-carboxylic acid, disodium salt], the 50% inhibitory concentration (IC50) was over 500 nM.

With `Cc1cc(S(=O)(=O)Nc2ccsc2C(=O)O)ccc1N1CCCC1` [Example 32, 3-(3-methyl-4-(pyrrolidin-1-yl)phenylsulfonamido)thiophene-2-carboxylic acid, disodium salt], the IC50 was over 500 nM.

For the compound `O=C(O)c1sccc1NS(=O)(=O)c1ccc2c(c1)CCC2` [Example 33, 3-(2,3-dihydro-1H-indene-5-sulfonamido)thiophene-2-carboxylic acid, disodium salt], the IC50 was over 500 nM.

Turning to `O=C(O)c1sccc1NS(=O)(=O)c1ccc(C2CCCCC2)cc1` [Example 34, 3-(4-cyclohexylphenylsulfonamido)thiophene-2-carboxylic acid, disodium salt], the concentration for half-maximal inhibition (IC50) fell in the range of 100 to 500 nM.

With `O=C(O)c1sccc1NS(=O)(=O)c1ccc(F)cc1C1CCCC1` [Example 35, 3-(2-cyclopentyl-4-fluorophenylsulfonamido)thiophene-2-carboxylic acid, disodium salt], the IC50 is over 500 nM.

In the case of `O=C(O)c1sccc1NS(=O)(=O)c1ccc(C2CCCC2)cc1F` [Example 36, 3-(4-cyclopentyl-2-fluorophenylsulfonamido)thiophene-2-carboxylic acid, disodium salt], the concentration for half-maximal inhibition (IC50) is at most 100 nM.

Consider `CC(C)c1ccc(S(=O)(=O)Nc2ccsc2C(=O)O)cc1` [Example 37, 3-[4-(iso-propylphenyl)sulfonamido]thiophene-2-carboxylic acid, disodium salt], for which the half-inhibitory concentration (IC50) fell in the range of 100 to 500 nM.

Turning to `CCCCc1ccc(S(=O)(=O)Nc2ccsc2C(=O)O)cc1` [Example 38, 3-[4-(n-butylphenyl)sulfonamide]thiophene-2-carboxylic acid, disodium salt], the half-maximal inhibitory concentration (IC50) is at most 100 nM.

In the case of `CCc1ccccc1-c1cccc(S(=O)(=O)Nc2ccsc2C(=O)O)c1` [Example 39, 3-(2′-ethylbiphenyl-3-ylsulfonamido)thiophene-2-carboxylic acid, disodium salt], the half-maximal inhibitory concentration (IC50) was over 500 nM.

For the compound `O=C(O)c1sccc1NS(=O)(=O)c1cccc(-c2ccccc2)c1` [Example 40, 3-(biphenyl-3-ylsulfonamido)thiophene-2-carboxylic acid, disodium salt], the concentration for half-maximal inhibition (IC50) was over 500 nM.

As to `Cc1cccc(C)c1-c1cccc(S(=O)(=O)Nc2ccsc2C(=O)O)c1` [Example 41, 3-(2′,6′-dimethylbiphenyl-3-ylsulfonamido)thiophene-2-carboxylic acid, disodium salt], the concentration for half-maximal inhibition (IC50) was over 500 nM.

As to `Cc1cc(C)cc(-c2cccc(S(=O)(=O)Nc3ccsc3C(=O)O)c2)c1` [Example 42, 3-(3′,5′-dimethylbiphenyl-3-ylsulfonamido)thiophene-2-carboxylic acid, disodium salt], the IC50 is over 500 nM.

Turning to `CC(C)c1ccccc1-c1cccc(S(=O)(=O)Nc2ccsc2C(=O)O)c1` [Example 43, 3-(2′-isopropylbiphenyl-3-ylsulfonamido)thiophene-2-carboxylic acid, disodium salt], the half-inhibitory concentration (IC50) is over 500 nM.

Take `CCCOc1ccccc1-c1cccc(S(=O)(=O)Nc2ccsc2C(=O)O)c1` [Example 44, 3-(2′-propoxybiphenyl-3-ylsulfonamido)thiophene-2-carboxylic acid, disodium salt]: the IC50 is over 500 nM.

For `CC(C)(C)c1ccc(S(=O)(=O)Nc2ccsc2C(=O)O)c(-c2ccncc2Cl)c1` [Example 45, 3-[4-tert-Butyl-2-(3-chloropyridin-4-yl)phenyl-sulfonamido]thiophene-2-carboxylic acid], the half-maximal inhibitory concentration (IC50) is over 500 nM.

For the compound `CC(C)(C)c1ccc(S(=O)(=O)Nc2ccsc2C(=O)O)c(-c2ccccc2)c1` [Example 46, 3-(5-tert-butylbiphenyl-2-ylsulfonamido)thiophene-2-carboxylic acid, disodium salt], the IC50 was over 500 nM.

For `CC(C)(C)c1ccc(S(=O)(=O)Nc2ccsc2C(=O)O)c(N2CCCCC2)c1` [Example 47, 3-[4-tert-Butyl-2-(piperidin-1-yl)phenylsulfonamido]thiophene-2-carboxylic acid], the IC50 fell in the range of 100 to 500 nM.

`CCc1cc(C(C)(C)C)ccc1S(=O)(=O)Nc1ccsc1C(=O)O` [Example 48, 3-(4-tert-butyl-2-ethylphenylsulfonamido)thiophene-2-carboxylic acid, disodium salt]: the IC50 is at most 100 nM.

With `CC1(C)CCC(C)(C)c2cc(S(=O)(=O)Nc3ccsc3C(=O)O)ccc21` [Example 49, 3-(5,5,8,8-tetramethyl-5,6,7,8-tetrahydronaphthalene-2-sulfonamido)thiophene-2-carboxylic acid, disodium salt], the IC50 was over 500 nM.

Consider `O=C(O)c1sccc1NS(=O)(=O)c1ccc(OC(F)(F)F)cc1Cl` [Example 50, 3-[2-chloro-4-(trifluoromethoxy)phenylsulfonamido]thiophene-2-carboxylic acid, disodium salt], for which the half-inhibitory concentration (IC50) is at most 100 nM.

For `O=C(O)c1sccc1NS(=O)(=O)c1c(Cl)cc(C(F)(F)F)cc1Cl` [Example 51, 3-[2,6-dichloro-4-(trifluoromethyl)phenylsulfonamido]thiophene-2-carboxylic acid, disodium salt], the IC50 is over 500 nM.

On to `CC(C)(C)c1ccc(S(=O)(=O)Nc2ccsc2C(=O)O)c(/C=C/C2CC2)c1` [Example 52, 3-[4-tert-butyl-2-(2-cyclopropylvinyl)phenylsulfonamido]thiophene-2-carboxylic acid, disodium salt], for which the half-inhibitory concentration (IC50) was at most 100 nM.

On to `CC(C)(C)c1ccc(S(=O)(=O)Nc2ccsc2C(=O)O)c(-c2cccc(Cl)c2)c1` [Example 53, 3-(5-tert-butyl-3′-chlorobiphenyl-2-ylsulfonamido)thiophene-2-carboxylic acid, disodium salt], for which the half-maximal inhibitory concentration (IC50) is over 500 nM.

`CC(C)(C)c1ccc(S(=O)(=O)Nc2ccsc2C(=O)O)c(-c2cccc(F)c2)c1` [Example 54, 3-(5-tert-butyl-3′-fluorobiphenyl-2-ylsulfonamido)thiophene-2-carboxylic acid, disodium salt]: the half-maximal inhibitory concentration (IC50) fell in the range of 100 to 500 nM.

With `COC/C=C/c1cc(C(C)(C)C)ccc1S(=O)(=O)Nc1ccsc1C(=O)O` [Example 55, 3-[4-tert-butyl-2-(3-methoxyprop-1-enyl)phenylsulfonamido]thiophene-2-carboxylic acid, disodium salt], the concentration for half-maximal inhibition (IC50) lay within 100 to 500 nM.

On to `CCCc1cc(C(C)(C)C)ccc1S(=O)(=O)Nc1ccsc1C(=O)O` [Example 56, 3-(4-tert-butyl-2-propylphenylsulfonamido)thiophene-2-carboxylic acid, disodium salt], for which the IC50 is at most 100 nM.

Take `CC(C)(C)c1ccc(S(=O)(=O)Nc2ccsc2C(=O)O)c(CCC2CC2)c1` [Example 57, 3-[4-tert-Butyl-2-(2-cyclopropylethyl)phenylsulfonamido]thiophene-2-carboxylic acid, disodium salt]: the concentration for half-maximal inhibition (IC50) was at most 100 nM.

With `CCCCCc1cc(C(C)(C)C)ccc1S(=O)(=O)Nc1ccsc1C(=O)O` [Example 58, 3-(4-tert-butyl-2-pentylphenylsulfonamido)thiophene-2-carboxylic acid, disodium salt], the IC50 lay in the range of 100 to 500 nM.
